Results as given in US20230242496A1, “SOX11 INHIBITORS FOR TREATING MANTLE CELL LYMPHOMA” (Icahn School of Medicine At Mount Sinai, priority 2020, published 2023).

Columns and labels:
Jeko-1 (SOX11+) = test: Cell viability assay (CellTiter-Blue resazurin reduction); format: cell-based; conditions: Homo sapiens, JeKo-1, 72 h, JeKo-1 cells; for IC50: 0-40 μM; for viability at 20 µM: 20 μM compound, normalized to 0.2% DMSO
Procedure: Cell viability was determined by a fluorometric resazurin reduction method (CellTiter-Blue; Promega, Madison, Wis.) following the manufacturer's instructions. […] Cells were incubated for 72 hours. After incubation, 20 μl CellTiter-Blue Cell was added to each well and incubated for another 2 hours. […] The number of viable cells in each treated well was calculated, based on the linear least squares regression of the standard curve (OD vs. cell concentration). The viability of cells treated with compounds was normalized to the viability of cells treated with 0.2% Dimethyl sulfoxide (DMSO). Cell counts were confirmed with Trypan Blue Exclusion Assay on the Countess automated cell counter (Invitrogen) according to the manufacturer's specifications. The average and mean standard deviation were calculated from three separate experiments. IC50 values were calculated using the GraphPad Prism (version 4.00) based on a sigmoidal dose-response equation.

(His)6-SOX11-DBD protein = target: T1, (His)6-SOX11-DBD protein (Homo sapiens, UniProt P35716); test: Surface Plasmon Resonance (SPR) assay; format: binding; conditions: immobilized recombinant (His)6-SOX11-DBD, 25° C., compounds 5-40 μM, mean of three experiments
T1 construct: Recombinant (His)6-SOX11-DBD protein was immobilized
T1 sequence (P35716 49-117 limits assumed): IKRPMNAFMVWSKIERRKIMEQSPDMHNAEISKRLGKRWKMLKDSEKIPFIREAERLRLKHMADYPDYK
Procedure: Surface Plasmon Resonance (SPR) Assay
Recombinant (His)6-SOX11-DBD protein was immobilized at a flow rate of 10 μl/min for 180 seconds to the right channel of a gold-coated SCR NiHC200M sensor chip (XanTec bioanalytics) placed in a Reichert 2SPR instrument (Reichert Technologies). The left channel, without immobilized protein, was used as a reference. […] Compounds flowed sequentially from the left to the right channel over the prepared sensor chip surface. 120 seconds association phase with each compound concentration was followed by 300 seconds dissociation phase with the assay buffer alone. The ka, kd, and KD values were determined from the sensograms for at least 3 concentrations of each compound by curve fitting the data using Reichert's TraceDrawer software. The mean KD value for each compound was calculated from three separate experiments.

| Structure (SMILES) | Kd ((His)6-SOX11-DBD protein) [µM] | IC50 (Jeko-1 (SOX11+)) [µM] | viability at 20 µM (Jeko-1 (SOX11+)) [%] |
| --- | --- | --- | --- |
| O=C(Nc1ccc(S(=O)(=O)Nc2ccccc2)cc1)c1ccc2nn[nH]c2c1 | – | 12 | 5.75 |
| CC1Sc2ccc(C(=O)Nc3ccc(S(=O)(=O)Nc4ccccc4F)cc3)cc2NC1=O (stereo not shown) | – | 15 | 21.2 |
| CC1Sc2ccc(C(=O)Nc3ccc(S(=O)(=O)Nc4ccccc4)cc3C(F)(F)F)cc2NC1=O (stereo not shown) | – | 5 | 1.38 |
| Cc1cc(S(=O)(=O)Nc2ccccc2)ccc1NC(=O)c1ccc2c(c1)NC(=O)C(C)S2 (stereo not shown) | – | 20 | 51.1 |
| CC1Sc2ccc(C(=O)Nc3cccc(S(=O)(=O)Nc4cccc(C(F)(F)F)c4)c3)cc2NC1=O (stereo not shown) | – | 10 | 16.8 |
| CC1Sc2ccc(C(=O)Nc3ccc(OCc4ccccc4C(F)(F)F)cc3)cc2NC1=O (stereo not shown) | – | – | 106 |
| CC1Sc2ccc(C(=O)Nc3ccc(OCc4ccccc4)cc3)cc2NC1=O (stereo not shown) | – | – | 104 |
| CC1Sc2ccc(C(=O)Nc3cccc(OCc4ccccc4C(F)(F)F)c3)cc2NC1=O (stereo not shown) | – | – | 87.1 |
| C[C@H]1Sc2ccc(C(=O)Nc3ccc(S(=O)(=O)Nc4ccccc4)cc3)cc2NC1=O | – | 12.5 | – |
| CC1Sc2ccc(C(=O)Nc3cccc(CNc4cccc(OS(=O)(=O)F)c4)c3)cc2NC1=O (stereo not shown) | 11.2 | – | – |
| CC1Sc2ccc(C(=O)Nc3cccc(OCc4ccc(OS(=O)(=O)F)cc4)c3)cc2NC1=O (stereo not shown) | 19.1 | – | – |
| CC1Sc2ccc(C(=O)Nc3cccc(OCc4cccc(OS(=O)(=O)F)c4)c3)cc2NC1=O (stereo not shown) | 16.9 | – | – |
| CC1Sc2ccc(C(=O)Nc3cccc(S(=O)(=O)F)c3)cc2NC1=O (stereo not shown) | 35.5 | – | – |
| CC1Sc2ccc(C(=O)Nc3ccc(OCc4cccc(S(=O)(=O)F)c4)cc3)cc2NC1=O (stereo not shown) | 7.17 | – | – |
| CC(=O)N1CCN(S(=O)(=O)c2cccc(NC(=O)c3ccc4c(c3)CCCS4)c2)CC1 | 15.4 | – | – |
| O=C(Nc1cccc(CN2CCCCC2)c1)c1ccc2c(c1)CCCS2 | 24 | – | – |
| c1ccc(OCc2ccc(CNc3ccc4cncnc4c3)cc2)cc1 | 12 | – | – |

The next lines start with results.

| Kd ((His)6-SOX11-DBD protein) [µM] | Structure (SMILES) | IC50 (Jeko-1 (SOX11+)) [µM] | viability at 20 µM (Jeko-1 (SOX11+)) [%] |
| --- | --- | --- | --- |
| 94.6 | Cc1cc(C(=O)Nc2ccc(S(=O)(=O)Nc3ccccc3)cc2)nc(NC2CCC(N)CC2)n1 (stereo not shown) | – | – |
| 89.6 | CC(=O)NCCNc1nc(C)cc(C(=O)Nc2ccc(S(=O)(=O)Nc3ccccc3)cc2)n1 | – | – |
| 80.7 | Cc1cc(Nc2cc(C(=O)Nc3ccc(S(=O)(=O)Nc4ccccc4)cc3)ccc2C)nc(N)n1 | – | – |
| 72.1 | Cc1ccc(C(=O)Nc2ccc(S(=O)(=O)Nc3ccccc3)cc2)cc1NC(=O)CCc1c[nH]cn1 | – | – |
| 16.5 | COc1cccc(NC(=O)Nc2cc(Nc3cccc(S(=O)(=O)N4CCCC4)c3)ncn2)c1 | – | – |
| 79.3 | NCCc1nc2ccc(C(=O)Nc3ccc(S(=O)(=O)Nc4ccccc4)cc3)cc2[nH]1 | – | – |
| 118 | Nc1cccc(Nc2ccnc(Nc3cccc(S(=O)(=O)N4CCCC4)c3)n2)c1 | – | – |
| 61.9 | Cc1ccc(C(=O)Nc2ccc(S(=O)(=O)Nc3ccccc3)cc2)cc1NC(=O)Cc1cc(=O)[nH]c(=O)[nH]1 | – | – |
| 22.1 | Cc1cc(C(=O)Nc2ccc(S(=O)(=O)Nc3ccccc3)cc2)nc(NCCN)n1 | – | – |
| 38 | CC(=O)NCc1cccc(Nc2ccnc(Nc3cccc(S(=O)(=O)N4CCCC4)c3)n2)c1 | – | – |
| 163 | CC(=O)NCc1cccc(Nc2nc(Nc3cccc(S(=O)(=O)N4CCCC4)c3)ncc2C)c1 | – | – |
| 122 | Cc1cc(C(=O)Nc2ccc(OCc3ccccc3)cc2)nc(NCCN)n1 | – | – |
| 247 | O=C(Cc1ccccc1[N+](=O)[O-])Nc1cccc(C(=O)Nc2ccc(CN3CCCC3)cc2)c1 | – | – |
| 15.4 | Nc1ccccc1CC(=O)Nc1cccc(C(=O)Nc2ccc(CN3CCCC3)cc2)c1 | – | – |
| 105 | Cc1cnc(Nc2cccc(S(=O)(=O)N3CCCC3)c2)nc1Nc1cccc(N)c1 | – | – |
| 21.7 | CN(c1ccccc1)S(=O)(=O)c1ccc(NC(=O)c2ccc3c(c2)CCCS3)cc1 | – | – |
| 24.1 | CC(=O)N1CCN(S(=O)(=O)c2ccc(NC(=O)c3ccc4c(c3)CCCS4)cc2)CC1 | – | – |
| 37.5 | CN(Cc1cccc(NC(=O)c2ccc3c(c2)CCCS3)c1)c1ccccc1 | – | – |
| 15.7 | O=C(Nc1ccc(S(=O)(=O)N2CCCCC2)cc1)c1ccc2c(c1)N(Cc1ccccc1)C(=O)CS2 | – | – |
| 12.4 | O=C(Nc1cccc(OCc2ccccc2)c1)c1ccc2oc(=O)[nH]c2c1 | – | – |
| 25.2 | CCCCN1C(=O)CSc2ccc(C(=O)Nc3ccc(S(=O)(=O)N4CCCCC4)cc3)cc21 | – | – |
| 367 | O=C(Nc1ccc(S(=O)(=O)Nc2ccccc2)cc1)c1ccc2nncn2c1 | – | – |
| 4.94 | CN1C(=O)COc2ccc(C(=O)Nc3ccc(S(=O)(=O)N4CCCCCC4)cc3)cc21 | – | – |
| 38.8 | CN(Cc1cccc(NC(=O)c2ccc3snnc3c2)c1)c1ccccc1 | – | – |
